Measured values published in patent publication US6410483B1, “Phenylsulfonylureas, processes for their preparation, and their use as herbicides and plant growth regulators” (Hoechst Schering AgrEvo GmbH, priority 1997, dated 2002).

In the case of COC(=O)NCCc1ccc(C(=O)OC)c(S(=O)(=O)NC(=O)Nc2nc(OC)cc(OC)n2)c1 [Example A5, Methyl 2-[(4,6-Dimethoxypyrimidin-2-yl)aminocarbonylaminosulfonyl]-4-[2-(methoxycarbonylamino)ethyl]benzoate], the melting point is reported as 165 to 169 °C (dec.).
